Measured values as given in ChEMBL document CHEMBL3124746, “Triazine Analogues as NS5B Inhibitors for the Treatment of HCV” (ACS Med Chem Lett, 2014).

Tested on: Hepatitis C virus
Experiment: Antiviral activity against HCV infected in human HuH7 cells assessed as inhibition of viral replication after 2 days by luciferase reporter gene assay
Type: functional, organism-based, Hepacivirus hominis
Conditions: Huh-7, 48 h

Row | EC50 [pM] | SMILES
1 | 160 | COC(=O)[C@@H](CCNC(=O)C(=O)Nc1cccc(OC(F)(F)F)c1)NC(=O)c1ccc(Nc2nc(NC3(c4ccc(Cl)cc4)CC3)nc(OCC(F)(F)F)n2)cc1
2 | 690 | CNC(=O)C(=O)NC[C@@H](NC(=O)c1ccc(Nc2nc(NC3(c4ccc(Cl)cc4)CC3)nc(OCC(F)(F)F)n2)cc1)C(=O)O
